According to patent publication US20020005386A1, “Water based oil dispersant” (Polychemical Corporation, priority 1999, published 2002):

How the values were obtained:
Mysidopsis bahia = assay: Dispersant toxicity testing, 48 hour LC50; details: in vivo
Procedure: Dispersant toxicity testing was performed by Coastal Bioanalysts.
This toxicity data was obtained using the concentrated product.

[1] = Surfactant screening test, visual emulsification of Prudhoe Bay Crude in river (sea) water; details: 1st set: pure surfactant, 10 ml added to 100 microliter PBC in 120 ml water; shaken 50 times, stand 10 min
Procedure: 120 ml of the river (sea) water is taken in a 130 ml bottle. Add 100 micro liter(μl) of Prudhoe Bay Crude to the bottle. Add […] of the pure test surfactant. The ratio of the surfactant to oil is 1:10, as per the spec. (the only difference is instead of 100 μl of the 1:10 mixture, the volume added was 110 μl) the mix was shaken vigorously 50 times and allowed to stand 10 min. to evaluate the effectiveness of the system and compare it to COREXIT 9500 at the same ratio.
The first set was with pure surfactants, the 2nd set was with two surfactants combination with 10 μl, in a 1:3 ratio and the 3rd was with a 3 or more surfactants system with 1:3 ratio but 10 μl, 20 μl, or 30 μl addition. The results are tabulated below:
10 μl added unless otherwise stated.
A combination of the above selected surfactants was conceived and formulations with the following variations were evaluated: […]

Row | SMILES | LC50 of the Control Toxicant, M. bahia (Mysidopsis bahia) | APPEARANCE STABILITY OF EMULSION [1]
1 | CCCCCCCCCCCCOS(=O)(=O)[O-].[Na+] [Dss] | The Control Toxicant (Dss): M. bahia 9.82 ppm | –
2 | CCCCCCCC/C=C\CCCCCCCC(=O)OCC(O)CO (centres unmarked) [GMO, Glyceryl mono oleate] | – | Not good
